From patent US8865705B2, “Benzimidazole respiratory syncytial virus inhibitors” (Janssen R&D Ireland, priority 2010, dated 2014)
Read-outs that look alike come from different tables or passages of the source.

Key:
HeLa cells = test: Cytotoxicity in HeLa cells by ATP content (ATPlite kit); assay type: cell-based
Protocol: (§1) Black 96-well clear-bottom microtiter plates (Corning, Amsterdam, The Netherlands) were filled in duplicate using a customized robot system with serial 4-fold dilutions of compound in a final volume of 50 μl culture medium [RPMI medium without phenol red, 10% FBS, 0.04% gentamycin (50 mg/mL) and 0.5% DMSO]. Then, 100 μl of a HeLa cell suspension (5×10^4 cells/mL) in culture medium was added to each well followed by the addition of 50 μl rgRSV224 (MOI=0.02) virus in culture medium using a multidrop dispenser (Thermo Scientific, Erembodegem, Belgium). rgRSV224 virus is an engineered virus that includes an additional GFP gene (Hallak et al, 2000) and was in-licensed from the NIH (Bethesda, Md., USA). Medium, virus- and mock-infected controls were included in each test. Cells were incubated at 37° C. in a 5% CO2 atmosphere. Three days post-virus exposure, viral replication was quantified by measuring GFP expression in the cells by a MSM laser microscope (Tibotec, Beerse, Belgium). The EC50 was defined as the 50% inhibitory concentration for GFP expression. In parallel, compounds were incubated for three days in a set of white 96-well microtitier plates (Corning) and the cytotoxicity of compounds in HeLa cells was determined by measuring the ATP content of the cells using the ATPlite kit (PerkinElmer, Zaventem, Belgium) according to the manufacturer's instructions. The CC50 was defined as the 50% concentration for cytotoxicity.

rgRSV224 virus = test: microbe, parasite or virus in culture; assay type: cell-based, respiratory syncytial virus (RSV); conditions: for EC50: read-out: WT activity EC50; for SI CC50/EC50: selectivity index, CC50 (HeLa cytotoxicity) over EC50 (rgRSV224)
Protocol: as §1, with “The EC50 was defined as the 50% inhibitory concentration for GFP expression.” left out, “instructions.” for “instructions. The CC50 was defined as the 50% concentration for cytotoxicity.”

[1] = Table 1, rgRSV224 in HeLa cells, GFP expression three days post-virus exposure
[2] = Table 2, rgRSV224 in HeLa cells, GFP expression three days post-virus exposure
[3] = human respiratory syncytial virus, HeLa, 72 h

## O=c1n(Cc2nc3cc(Br)ccc3n2CCCCF)c2cnccc2n1C1CC1 [P1]
HeLa cells; Table 1, HeLa cells, three days, ATP content, read-out: Tox CC50
  CC50: > 9840 nM
rgRSV224 virus; [1]
  EC50: 0.033 nM

## CS(=O)(=O)CCCn1c(Cn2c(=O)n(C3CC3)c3ccc(F)cc32)nc2cc(Br)ccc21 [P3]
HeLa cells
  CC50: > 9840 nM
rgRSV224 virus; [1]
  EC50: 0.47 nM

## CS(=O)(=O)NCCCCn1c(Cn2c(=O)n(C3CC3)c3ccncc32)nc2cc(Br)ccc21 [P5]
HeLa cells
  CC50: > 101000 nM
rgRSV224 virus; [1]
  EC50: < 0.15 nM

## CS(=O)(=O)CCCn1c(Cn2c(=O)n(C3CC3)c3ccncc32)nc2cc(Cl)ccc21 [P6]
HeLa cells
  CC50: > 9840 nM
rgRSV224 virus; [1]
  EC50: < 0.15 nM

## CC(C)CCn1c(Cn2c(=O)n(C3CC3)c3ccc(F)cc32)nc2cc(Cl)ccc21 [P28]
rgRSV224 virus; [2]
  EC50: 2.32 nM
rgRSV224 virus; Table 2
  SI CC50/EC50: 14563

## O=c1n(Cc2nc3cc(Cl)ccc3n2CCCCF)c2cnccc2n1C1CC1 [P31]
rgRSV224 virus; [2]
  EC50: 0.19 nM
rgRSV224 virus; Table 2
  SI CC50/EC50: >267110

## CC(C)CCn1c(Cn2c(=O)n(C3CC3)c3ccc(F)cc32)nc2cc(Br)ccc21 [P32]
rgRSV224 virus; [2]
  EC50: 2.53 nM
rgRSV224 virus; Table 2
  SI CC50/EC50: 25508

## CC(C)(C)OC(=O)Cn1c(=O)n(Cc2nc3cc(Cl)ccc3n2CCCCF)c2cnccc21 [P33, tert-butyl (3-{[5-chloro-1-(4-fluorobutyl)-1H-benzimidazol-2-yl]methyl}-2-oxo-2,3-dihydro-1H-imidazo[4,5-c]pyridin-1-yl)acetate]
rgRSV224 virus; Table 2
  SI CC50/EC50: >49120
rgRSV224 virus; [3]
  EC50: 1.9 nM

## CS(=O)(=O)n1c(=O)n(Cc2nc3cc(Cl)ccc3n2CCCCF)c2cnccc21 [P34, 3-((5-chloro-1-(4-fluorobutyl)-1H-benzo[d]imidazol-2-yl)methyl)-1-(methylsulfonyl)-1H-imidazo[4,5-c]pyridin-2(3H)-one]
rgRSV224 virus; Table 2
  SI CC50/EC50: >1 048 580
rgRSV224 virus; [3]
  EC50: 0.09 nM

## CC(C)CCn1c(Cn2c(=O)n(C3CC3)c3ccccc32)nc2cc(Cl)ccc21 [P35]
rgRSV224 virus; [2]
  EC50: 2.63 nM
rgRSV224 virus; Table 2
  SI CC50/EC50: 33466

## O=C(CCCn1c(Cn2c(=O)n(C3CC3)c3ccncc32)nc2cc(Br)ccc21)NCCS(=O)(=O)n1ccnc1 [P38]
rgRSV224 virus; [2]
  EC50: 0.22 nM
rgRSV224 virus; Table 2
  SI CC50/EC50: >445390

## O=c1n(Cc2nc3cc(Cl)ccc3n2CCCCF)c2cnccc2n1CC(F)F [P40]
rgRSV224 virus; [2]
  EC50: 0.048 nM
rgRSV224 virus; Table 2
  SI CC50/EC50: 2000000

## O=c1n(Cc2ccc(F)cc2)c2ccncc2n1Cc1nc2cc(Cl)ccc2n1CCCCF [P41]
rgRSV224 virus; [2]
  EC50: 0.16 nM
rgRSV224 virus; Table 2
  SI CC50/EC50: 503466

## O=c1n(Cc2nc3cc(Cl)ccc3n2CCCNc2ncccn2)c2cnccc2n1C1CC1 [P44]
rgRSV224 virus; [2]
  EC50: 0.3 nM
rgRSV224 virus; Table 2
  SI CC50/EC50: 302162

## O=C(O)CCCn1c(Cn2c(=O)n(C3CC3)c3ccncc32)nc2cc(Cl)ccc21 [P45, 4-(5-chloro-2-((1-cyclopropyl-2-oxo-1H-imidazo[4,5-c]pyridin-3(2H)-yl)methyl)-1H-benzo[d]imidazol-1-yl)butanoic acid]
rgRSV224 virus; Table 2
  SI CC50/EC50: D. >19412
rgRSV224 virus; [3]
  EC50: 5.15 nM

## O=C1c2ccccc2C(=O)N1CCCCn1c(Cn2c(=O)n(C3CC3)c3ccncc32)nc2cc(Cl)ccc21 [P46]
rgRSV224 virus; [2]
  EC50: 0.57 nM
rgRSV224 virus; Table 2
  SI CC50/EC50: >44185

## O=c1n(Cc2nc3cc(Cl)ccc3n2CCCCc2ccccn2)c2cnccc2n1C1CC1 [P47]
rgRSV224 virus; [2]
  EC50: 0.76 nM
rgRSV224 virus; Table 2
  SI CC50/EC50: 84254

## O=C(CCCn1c(Cn2c(=O)n(C3CC3)c3ccncc32)nc2cc(Br)ccc21)N1CCOCC1 [P48, 3-((5-bromo-1-(4-morpholino-4-oxobutyl)-1H-benzo[d]imidazol-2-yl)-methyl)-1-cyclopropyl-1H-imidazo[4,5-c]pyridin-2(3H)-one]
rgRSV224 virus; Table 2
  SI CC50/EC50: >102584
rgRSV224 virus; [3]
  EC50: 0.97 nM

## O=C(CCCn1c(Cn2c(=O)n(C3CC3)c3ccncc32)nc2cc(Cl)ccc21)NS(=O)(=O)C1CC1 [P49, 4-(5-chloro-2-((1-cyclopropyl-2-oxo-1H-imidazo[4,5-c]pyridin-3 (2H)-yl)methyl)-1H-benzo[d]imidazol-1-yl)-N-(cyclopropylsulfonyl)butanamide]
rgRSV224 virus; Table 2
  SI CC50/EC50: >55412
rgRSV224 virus; [3]
  EC50: 1.8 nM

## O=c1n(Cc2nc3cc(Cl)ccc3n2CCCc2ccccc2)c2cnccc2n1C1CC1 [P50]
rgRSV224 virus; [2]
  EC50: 0.23 nM
rgRSV224 virus; Table 2
  SI CC50/EC50: 93799

## O=c1n(Cc2nc3cc(Cl)ccc3n2CCCn2ccnc2)c2cnccc2n1C1CC1 [P51, 3-({5-chloro-1-[3-(1H-imidazol-1-yl)propyl]-1H-benzimidazol-2-yl}methyl)-1-cyclopropyl-1,3-dihydro-2H-imidazo[4,5-c]pyridin-2-one]
rgRSV224 virus; Table 2
  SI CC50/EC50: >401504
rgRSV224 virus; [3]
  EC50: 0.25 nM

## CC(C)(C)OC(=O)CCCn1c(Cn2c(=O)n(C3CC3)c3ccncc32)nc2cc(Cl)ccc21 [P52]
rgRSV224 virus; [2]
  EC50: 0.55 nM
rgRSV224 virus; Table 2
  SI CC50/EC50: 70937

## O=c1n(Cc2nc3cc(Cl)ccc3n2CCCC(F)(F)F)c2cc(F)ccc2n1C1CC1 [P58]
rgRSV224 virus; [2]
  EC50: 0.49 nM
rgRSV224 virus; Table 2
  SI CC50/EC50: 104559

## CN(C(=O)CCCn1c(Cn2c(=O)n(C3CC3)c3ccncc32)nc2cc(Cl)ccc21)S(=O)(=O)C1CC1 [P59, 4-(5-chloro-2-((1-cyclopropyl-2-oxo-1H-imidazo[4,5-c]pyridin-3(2H)-yl)methyl)-1H-benzo[d]imidazol-1-yl)-N-(cyclopropylsulfonyl)-N-methylbutanamide]
rgRSV224 virus; Table 2
  SI CC50/EC50: >604770
rgRSV224 virus; [3]
  EC50: 0.17 nM

## CC(C)(C)OC(=O)Cn1c(=O)n(Cc2nc3cc(Cl)ccc3n2CCCC(F)(F)F)c2cnccc21 [P60]
rgRSV224 virus; [2]
  EC50: 1.68 nM
rgRSV224 virus; Table 2
  SI CC50/EC50: >59486

## O=C(CCn1c(Cn2c(=O)n(C3CC3)c3ccc(F)cc32)nc2cc(Cl)ccc21)N1CCOCC1 [P62]
rgRSV224 virus; [2]
  EC50: 1.36 nM
rgRSV224 virus; Table 2
  SI CC50/EC50: >73334

## O=C(CCCn1c(Cn2c(=O)n(C3CC3)c3ccncc32)nc2cc(Cl)ccc21)N1CCOCC1 [P63]
rgRSV224 virus; [2]
  EC50: 1 nM
rgRSV224 virus; Table 2
  SI CC50/EC50: >98994

## O=C(CCn1c(Cn2c(=O)n(C3CC3)c3ccncc32)nc2cc(Cl)ccc21)N1CCOCC1 [P64]
rgRSV224 virus; [2]
  EC50: 1.45 nM
rgRSV224 virus; Table 2
  SI CC50/EC50: >68795

## N#CCCCn1c(Cn2c(=O)n(C3CC3)c3ccccc32)nc2cc(Cl)ccc21 [P70]
rgRSV224 virus; [2]
  EC50: 0.631 nM
rgRSV224 virus; Table 2
  SI CC50/EC50: >159787

## CN(C)C(=O)Cn1c(=O)n(Cc2nc3cc(Cl)ccc3n2CCCCF)c2cnccc21 [P71]
rgRSV224 virus; [2]
  EC50: 2.5 nM
rgRSV224 virus; Table 2
  SI CC50/EC50: >39781

## N#CCCCn1c(Cn2c(=O)n(C3CC3)c3ccc(F)cc32)nc2cc(Cl)ccc21 [P73]
rgRSV224 virus; [2]
  EC50: 1.58 nM
rgRSV224 virus; Table 2
  SI CC50/EC50: 23633

## O=C(CCCn1c(Cn2c(=O)n(C3CC3)c3ccncc32)nc2cc(Br)ccc21)N1CCCCS1(=O)=O [P74]
rgRSV224 virus; [2]
  EC50: 1.18 nM
rgRSV224 virus; Table 2
  SI CC50/EC50: >84529

## O=C(CCCn1c(Cn2c(=O)n(C3CC3)c3ccncc32)nc2cc(Br)ccc21)N1CCCS1(=O)=O [P75]
rgRSV224 virus; [2]
  EC50: 0.2 nM
rgRSV224 virus; Table 2
  SI CC50/EC50: >444590

## NS(=O)(=O)NC(=O)CCCn1c(Cn2c(=O)n(C3CC3)c3ccncc32)nc2cc(Br)ccc21 [P76, 4-(5-bromo-2-((1-cyclopropyl-2-oxo-1H-imidazo[4,5-c]pyridin-3(2H)-yl)methyl)-1H-benzo[d]imidazol-1-yl)-N-sulfamoylbutanamide]
rgRSV224 virus; Table 2
  SI CC50/EC50: >214887
rgRSV224 virus; [3]
  EC50: 0.47 nM

## CCCS(=O)(=O)NC(=O)CCCn1c(Cn2c(=O)n(C3CC3)c3ccncc32)nc2cc(Br)ccc21 [P78]
rgRSV224 virus; [2]
  EC50: 1.73 nM
rgRSV224 virus; Table 2
  SI CC50/EC50: >57893

## CN(C(=O)CCCn1c(Cn2c(=O)n(C3CC3)c3ccncc32)nc2cc(Br)ccc21)S(C)(=O)=O [P79]
rgRSV224 virus; [2]
  EC50: 0.56 nM
rgRSV224 virus; Table 2
  SI CC50/EC50: >177178

## CS(=O)(=O)NC(=O)CCCn1c(Cn2c(=O)n(C3CC3)c3ccncc32)nc2cc(Br)ccc21 [P80]
rgRSV224 virus; [2]
  EC50: 1 nM
rgRSV224 virus; Table 2
  SI CC50/EC50: >99444

## CCCCS(=O)(=O)NC(=O)CCCn1c(Cn2c(=O)n(C3CC3)c3ccncc32)nc2cc(Br)ccc21 [P81]
rgRSV224 virus; [2]
  EC50: 7.25 nM
rgRSV224 virus; Table 2
  SI CC50/EC50: >13798

## NC(=O)CCCn1c(Cn2c(=O)n(C3CC3)c3ccncc32)nc2cc(Br)ccc21 [P82]
rgRSV224 virus; [2]
  EC50: 0.58 nM
rgRSV224 virus; Table 2
  SI CC50/EC50: >85761

## CNC(=O)CCCn1c(Cn2c(=O)n(C3CC3)c3ccncc32)nc2cc(Br)ccc21 [P83]
rgRSV224 virus; [2]
  EC50: 0.9 nM
rgRSV224 virus; Table 2
  SI CC50/EC50: >111709

## CS(=O)(=O)CCCn1c(Cn2c(=O)n(C3CC3)c3ccncc32)nc2ccccc21 [Ref1, reference compound]
rgRSV224 virus; [2]
  EC50: 2.5 nM
rgRSV224 virus; Table 2
  SI CC50/EC50: >4315

## O=c1n(Cc2nc3ccccc3n2CCCCO)c2cnccc2n1C1CC1 [Ref2, reference compound]
rgRSV224 virus; [2]
  EC50: 3.98 nM
